Data reported in patent publication EP4745135A1 (Gluetacs Therapeutics (Shanghai) Co., Ltd., priority 2023, dated 2025).

Experiments:
[1] = molecular target: T1, CK1α (Homo sapiens, UniProt P48729+Q96SW2); test: Western blot, degradation of substrate protein in hPBMCs; format: cell-based; settings: Western blot, 24 hours of compound treatment, compounds tested at 50 nM and 500 nM (concentration for the table not stated)
T1 construct: effects of the compounds of the present disclosure on the expression of target proteins in cells; endogenous in cells; host or cells: human PBMCs (Milecell Biotechnologies)
T1 sequence (P48729 whole entry): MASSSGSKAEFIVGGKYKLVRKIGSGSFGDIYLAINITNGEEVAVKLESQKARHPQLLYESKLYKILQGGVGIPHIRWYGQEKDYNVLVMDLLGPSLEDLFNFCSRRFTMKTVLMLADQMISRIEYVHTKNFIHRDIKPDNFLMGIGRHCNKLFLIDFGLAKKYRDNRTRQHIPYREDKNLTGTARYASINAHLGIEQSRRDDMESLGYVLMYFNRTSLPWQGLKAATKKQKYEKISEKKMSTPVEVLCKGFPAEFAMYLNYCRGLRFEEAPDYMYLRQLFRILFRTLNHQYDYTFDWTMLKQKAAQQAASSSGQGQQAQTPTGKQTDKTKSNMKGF
T1 sequence (Q96SW2 whole entry): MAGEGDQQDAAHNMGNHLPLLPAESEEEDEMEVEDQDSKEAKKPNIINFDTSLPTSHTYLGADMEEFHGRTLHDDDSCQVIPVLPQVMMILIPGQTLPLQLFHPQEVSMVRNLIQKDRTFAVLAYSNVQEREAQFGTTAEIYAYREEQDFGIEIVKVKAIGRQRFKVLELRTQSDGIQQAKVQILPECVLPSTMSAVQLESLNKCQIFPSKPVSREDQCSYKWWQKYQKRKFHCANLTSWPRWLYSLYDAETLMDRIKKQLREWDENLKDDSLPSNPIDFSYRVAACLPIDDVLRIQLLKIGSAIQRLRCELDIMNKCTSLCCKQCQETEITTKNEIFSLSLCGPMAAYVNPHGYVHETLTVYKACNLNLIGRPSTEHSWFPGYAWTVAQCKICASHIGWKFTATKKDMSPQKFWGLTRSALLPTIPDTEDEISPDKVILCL
T1 sequence (Q16531 whole entry partner): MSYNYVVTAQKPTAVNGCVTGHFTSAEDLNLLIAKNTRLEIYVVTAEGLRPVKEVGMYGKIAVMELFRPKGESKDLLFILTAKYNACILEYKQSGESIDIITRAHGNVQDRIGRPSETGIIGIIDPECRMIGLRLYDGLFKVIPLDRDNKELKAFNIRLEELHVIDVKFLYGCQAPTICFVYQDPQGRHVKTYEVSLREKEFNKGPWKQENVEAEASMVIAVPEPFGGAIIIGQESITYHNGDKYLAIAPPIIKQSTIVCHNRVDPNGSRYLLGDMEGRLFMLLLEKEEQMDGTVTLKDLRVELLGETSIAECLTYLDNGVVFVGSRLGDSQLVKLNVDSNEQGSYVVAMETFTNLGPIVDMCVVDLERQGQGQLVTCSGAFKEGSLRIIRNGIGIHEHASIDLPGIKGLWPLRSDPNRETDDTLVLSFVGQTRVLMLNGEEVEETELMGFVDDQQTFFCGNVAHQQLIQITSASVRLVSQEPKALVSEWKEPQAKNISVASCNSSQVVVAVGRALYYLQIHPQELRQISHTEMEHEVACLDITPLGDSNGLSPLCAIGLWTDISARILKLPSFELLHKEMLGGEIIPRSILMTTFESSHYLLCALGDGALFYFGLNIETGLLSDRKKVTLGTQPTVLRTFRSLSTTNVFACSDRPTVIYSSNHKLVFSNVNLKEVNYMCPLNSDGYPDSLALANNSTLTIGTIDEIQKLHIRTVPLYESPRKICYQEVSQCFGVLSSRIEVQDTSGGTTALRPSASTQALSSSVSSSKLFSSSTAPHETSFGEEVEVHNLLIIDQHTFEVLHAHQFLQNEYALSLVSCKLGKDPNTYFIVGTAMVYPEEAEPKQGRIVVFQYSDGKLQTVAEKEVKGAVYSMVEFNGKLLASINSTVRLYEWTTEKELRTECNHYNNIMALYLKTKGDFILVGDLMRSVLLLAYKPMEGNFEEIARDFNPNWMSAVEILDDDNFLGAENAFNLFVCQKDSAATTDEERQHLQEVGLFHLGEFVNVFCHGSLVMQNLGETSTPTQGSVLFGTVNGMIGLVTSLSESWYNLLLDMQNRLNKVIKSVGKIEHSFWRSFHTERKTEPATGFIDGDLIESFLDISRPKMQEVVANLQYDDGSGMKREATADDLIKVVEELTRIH

[2] = molecular target: T2, IKZF1 (Homo sapiens, UniProt Q13422+Q96SW2); test: as above; format: cell-based; settings: Western blot, 24 hours of compound treatment, compounds tested at 50 nM and 500 nM (concentration for the table not stated)
T2 construct: effects of the compounds of the present disclosure on the expression of target proteins in cells; endogenous in cells; host or cells: human PBMCs (Milecell Biotechnologies)
T2 sequence (Q13422 whole entry): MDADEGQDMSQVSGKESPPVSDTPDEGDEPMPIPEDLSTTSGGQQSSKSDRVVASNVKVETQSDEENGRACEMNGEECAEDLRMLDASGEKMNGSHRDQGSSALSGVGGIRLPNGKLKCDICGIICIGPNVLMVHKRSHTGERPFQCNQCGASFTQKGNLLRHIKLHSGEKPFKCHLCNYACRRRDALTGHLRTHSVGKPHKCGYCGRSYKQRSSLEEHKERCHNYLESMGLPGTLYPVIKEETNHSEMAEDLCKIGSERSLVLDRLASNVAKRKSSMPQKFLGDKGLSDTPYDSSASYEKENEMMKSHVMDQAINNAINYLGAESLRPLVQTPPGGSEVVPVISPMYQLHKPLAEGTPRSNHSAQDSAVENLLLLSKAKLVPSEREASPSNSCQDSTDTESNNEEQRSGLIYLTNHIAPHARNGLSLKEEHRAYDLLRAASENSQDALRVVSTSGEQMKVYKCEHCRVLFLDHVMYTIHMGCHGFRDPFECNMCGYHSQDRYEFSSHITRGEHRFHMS
T2 sequence (Q96SW2 whole entry): as the sequence (Q96SW2 whole entry) above
T2 sequence (Q16531 whole entry partner): as the sequence (Q16531 whole entry partner) above

[3] = molecular target: T3, IKZF2 (Homo sapiens, UniProt Q96SW2+Q9UKS7); test: as above; format: cell-based; settings: Western blot, 24 hours of compound treatment, compounds tested at 50 nM and 500 nM (concentration for the table not stated)
T3 construct: effects of the compounds of the present disclosure on the expression of target proteins in cells; endogenous in cells; host or cells: human PBMCs (Milecell Biotechnologies)
T3 sequence (Q9UKS7 whole entry): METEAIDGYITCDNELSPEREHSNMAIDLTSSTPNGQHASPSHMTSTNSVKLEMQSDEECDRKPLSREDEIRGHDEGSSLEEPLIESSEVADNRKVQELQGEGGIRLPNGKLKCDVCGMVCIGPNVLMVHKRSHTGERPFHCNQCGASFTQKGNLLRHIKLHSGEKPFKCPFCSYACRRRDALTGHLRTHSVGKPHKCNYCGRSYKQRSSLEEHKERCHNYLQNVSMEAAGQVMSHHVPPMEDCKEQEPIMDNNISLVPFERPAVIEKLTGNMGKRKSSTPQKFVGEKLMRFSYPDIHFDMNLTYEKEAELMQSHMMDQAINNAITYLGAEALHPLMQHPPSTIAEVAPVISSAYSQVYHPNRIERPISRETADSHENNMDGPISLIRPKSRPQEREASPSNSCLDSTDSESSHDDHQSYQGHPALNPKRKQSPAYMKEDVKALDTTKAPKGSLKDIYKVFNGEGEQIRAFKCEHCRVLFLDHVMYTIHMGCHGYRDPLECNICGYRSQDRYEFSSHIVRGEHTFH
T3 sequence (Q96SW2 whole entry): as the sequence (Q96SW2 whole entry) above
T3 sequence (Q16531 whole entry partner): as the sequence (Q16531 whole entry partner) above

[4] = molecular target: T4, IKZF3 (Homo sapiens, UniProt Q96SW2+Q9UKT9); test: as above; format: cell-based; settings: Western blot, 24 hours of compound treatment, compounds tested at 50 nM and 500 nM (concentration for the table not stated)
T4 construct: effects of the compounds of the present disclosure on the expression of target proteins in cells; endogenous in cells; host or cells: human PBMCs (Milecell Biotechnologies)
T4 sequence (Q9UKT9 whole entry): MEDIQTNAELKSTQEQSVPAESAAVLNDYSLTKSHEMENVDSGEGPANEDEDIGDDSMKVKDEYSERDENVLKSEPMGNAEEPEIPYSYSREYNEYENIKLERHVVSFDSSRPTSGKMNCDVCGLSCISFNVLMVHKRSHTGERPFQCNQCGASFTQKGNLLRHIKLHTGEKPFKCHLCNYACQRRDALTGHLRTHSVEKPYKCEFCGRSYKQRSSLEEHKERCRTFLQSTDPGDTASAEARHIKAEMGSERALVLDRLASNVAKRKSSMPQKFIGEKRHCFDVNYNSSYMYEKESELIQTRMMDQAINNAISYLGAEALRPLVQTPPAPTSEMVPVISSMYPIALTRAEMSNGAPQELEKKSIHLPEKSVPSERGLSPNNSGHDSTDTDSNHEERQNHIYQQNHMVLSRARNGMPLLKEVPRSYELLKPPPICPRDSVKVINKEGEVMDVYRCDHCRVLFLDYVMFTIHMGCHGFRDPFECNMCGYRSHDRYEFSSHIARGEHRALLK
T4 sequence (Q96SW2 whole entry): as the sequence (Q96SW2 whole entry) above
T4 sequence (Q16531 whole entry partner): as the sequence (Q16531 whole entry partner) above

[5] = molecular target: T5, WEE1 (Homo sapiens, UniProt P30291+Q96SW2); test: as above; format: cell-based; settings: Western blot, 24 hours of compound treatment, compounds tested at 50 nM and 500 nM (concentration for the table not stated)
T5 construct: effects of the compounds of the present disclosure on the expression of target proteins in cells; endogenous in cells; host or cells: human PBMCs (Milecell Biotechnologies)
T5 sequence (P30291 whole entry): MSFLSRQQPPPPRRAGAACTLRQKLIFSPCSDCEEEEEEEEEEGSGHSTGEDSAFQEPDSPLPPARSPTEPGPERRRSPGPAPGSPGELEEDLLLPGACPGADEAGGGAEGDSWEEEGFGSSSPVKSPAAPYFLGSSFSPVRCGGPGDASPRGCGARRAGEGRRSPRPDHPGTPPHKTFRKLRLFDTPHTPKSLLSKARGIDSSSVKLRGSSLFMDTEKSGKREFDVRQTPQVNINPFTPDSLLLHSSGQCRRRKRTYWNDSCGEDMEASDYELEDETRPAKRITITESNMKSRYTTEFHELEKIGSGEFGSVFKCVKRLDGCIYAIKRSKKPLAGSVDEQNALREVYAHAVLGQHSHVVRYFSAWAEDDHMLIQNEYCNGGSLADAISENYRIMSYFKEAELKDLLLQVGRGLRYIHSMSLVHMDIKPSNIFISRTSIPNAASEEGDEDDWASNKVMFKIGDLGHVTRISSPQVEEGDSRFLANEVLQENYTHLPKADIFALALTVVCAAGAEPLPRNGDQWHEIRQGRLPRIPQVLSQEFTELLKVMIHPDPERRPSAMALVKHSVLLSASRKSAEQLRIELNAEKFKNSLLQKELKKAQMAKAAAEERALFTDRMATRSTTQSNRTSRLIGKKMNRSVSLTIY
T5 sequence (Q96SW2 whole entry): as the sequence (Q96SW2 whole entry) above
T5 sequence (Q16531 whole entry partner): as the sequence (Q16531 whole entry partner) above

[6] = system: GSPT1; test: as above; format: cell-based, Human; settings: Western blot, 24 hours of compound treatment, compounds tested at 50 nM and 500 nM (concentration for the table not stated)
[7] = molecular target: T6, human Cereblon WT GST-tagged protein (Homo sapiens, UniProt Q96SW2); test: CRBN-binding affinity, HTRF (CEREBLON BINDING kit); settings: for inhibition at 0.5 µM: read-out: Inhibition Rate at 0.5 µM (%); for inhibition at 2 µM: read-out: Inhibition Rate at 2 µM (%)
T6 construct: purchased CISBIO 64BDCRBNPEH
T6 sequence (Q96SW2 whole entry): as the sequence (Q96SW2 whole entry) above

inhibition at 0.5 µM [7] [%] | inhibition at 2 µM [7] [%] | SMILES | CK1α substrate protein remaining % [1] | IKZF 1 substrate protein remaining % [2] | IKZF2 substrate protein remaining % [3] | IKZF3 substrate protein remaining % [4] | Wee1 substrate protein remaining % [5] | GSPT1 substrate protein remaining % [6]
60 to 80 | 80 to 100 | O=C1CCC(N2Cc3c(CN4CCN(c5ccnc(Cl)c5Br)CC4)cccc3C2=S)C(=O)N1 (stereo not drawn) [GT-08734, 3-(4-((4-(3-bromo-2-chloropyridin-4-yl)piperazin-1-yl)methyl)-1-thioxoisoindolin-2-yl)piperidine-2,6-dione] | B (80%< substrate protein remaining %≤ 100%) | B (80%< substrate protein remaining %≤ 100%) | B (80%< substrate protein remaining %≤ 100%) | B (80%< substrate protein remaining %≤ 100%) | A (0% ≤ substrate protein remaining % ≤ 80%) | A (0% ≤ substrate protein remaining % ≤ 80%)
60 to 80 | 80 to 100 | O=C1CCC(N2Cc3c(CN4CCN(c5ccnc(Cl)c5Cl)CC4)cccc3C2=S)C(=O)N1 (stereo not drawn) [GT-08735, 3-(4-((4-(2,3-dichloropyridin-4-yl)piperazin-1-yl)methyl)-1-thioxoisoindolin-2-yl)piperidine-2,6-dione] | B (80%< substrate protein remaining %≤ 100%) | B (80%< substrate protein remaining %≤ 100%) | B (80%< substrate protein remaining %≤ 100%) | B (80%< substrate protein remaining %≤ 100%) | A (0% ≤ substrate protein remaining % ≤ 80%) | B (80%< substrate protein remaining %≤ 100%)
60 to 80 | 80 to 100 | O=C1CCC(N2Cc3c(CN4CCN(c5c(Cl)cncc5Br)CC4)cccc3C2=S)C(=O)N1 (stereo not drawn) [GT-08801, 3-(4-((4-(3-bromo-5-chloropyridin-4-yl)piperazin-1-yl)methyl)-1-thioxoisoindolin-2-yl)piperidine-2,6-dione] | B (80%< substrate protein remaining %≤ 100%) | B (80%< substrate protein remaining %≤ 100%) | B (80%< substrate protein remaining %≤ 100%) | B (80%< substrate protein remaining %≤ 100%) | A (0% ≤ substrate protein remaining % ≤ 80%) | B (80%< substrate protein remaining %≤ 100%)
53 to 60 | 80 to 100 | O=C1CCC(N2Cc3c(CN4CCN(c5c(F)cncc5Cl)CC4)cccc3C2=S)C(=O)N1 (stereo not drawn) [GT-08802, 3-(4-((4-(3-chloro-5-fluoropyridin-4-yl)piperazin-1-yl)methyl)-1-thioxoisoindolin-2-yl)piperidine-2,6-dione] | B (80%< substrate protein remaining %≤ 100%) | B (80%< substrate protein remaining %≤ 100%) | B (80%< substrate protein remaining %≤ 100%) | B (80%< substrate protein remaining %≤ 100%) | A (0% ≤ substrate protein remaining % ≤ 80%) | B (80%< substrate protein remaining %≤ 100%)
60 to 80 | 80 to 100 | O=C1CCC(N2Cc3c(CN4CCN(c5nccc(Cl)c5F)CC4)cccc3C2=S)C(=O)N1 (stereo not drawn) [GT-08803, 3-(4-((4-(4-chloro-3-fluoropyridin-2-yl)piperazin-1-yl)methyl)-1-thioxoisoindolin-2-yl)piperidine-2,6-dione] | B (80%< substrate protein remaining %≤ 100%) | B (80%< substrate protein remaining %≤ 100%) | B (80%< substrate protein remaining %≤ 100%) | B (80%< substrate protein remaining %≤ 100%) | A (0% ≤ substrate protein remaining % ≤ 80%) | B (80%< substrate protein remaining %≤ 100%)
40 to 53 | 60 to 80 | O=C1CCC(N2Cc3c(CN4CCN(c5nccc(Cl)c5Br)CC4)cccc3C2=S)C(=O)N1 (stereo not drawn) [GT-08804, 3-(4-((4-(3-bromo-4-chloropyridin-2-yl)piperazin-1-yl)methyl)-1-thioxoisoindolin-2-yl)piperidine-2,6-dione] | B (80%< substrate protein remaining %≤ 100%) | B (80%< substrate protein remaining %≤ 100%) | B (80%< substrate protein remaining %≤ 100%) | B (80%< substrate protein remaining %≤ 100%) | A (0% ≤ substrate protein remaining % ≤ 80%) | B (80%< substrate protein remaining %≤ 100%)
60 to 80 | 60 to 80 | O=C1CCC(N2Cc3c(CN4CCN(c5c(Cl)cncc5Cl)CC4)cccc3C2=S)C(=O)N1 (stereo not drawn) [GT-08805, 3-(4-((4-(3,5-dichloropyridin-4-yl)piperazin-1-yl)methyl)-1-thioxoisoindolin-2-yl)piperidine-2,6-dione] | B (80%< substrate protein remaining %≤ 100%) | B (80%< substrate protein remaining %≤ 100%) | B (80%< substrate protein remaining %≤ 100%) | B (80%< substrate protein remaining %≤ 100%) | A (0% ≤ substrate protein remaining % ≤ 80%) | B (80%< substrate protein remaining %≤ 100%)
53 to 60 | 80 to 100 | Cc1cc(N2CCN(Cc3cccc4c3CN(C3CCC(=O)NC3=O)C4=S)CC2)cc(C)n1 (stereo not drawn) [GT-08806, 3-(4-((4-(2,6-dimethylpyridin-4-yl)piperazin-1-yl)methyl)-1-thioxoisoindolin-2-yl)piperidine-2,6-dione] | B (80%< substrate protein remaining %≤ 100%) | B (80%< substrate protein remaining %≤ 100%) | B (80%< substrate protein remaining %≤ 100%) | B (80%< substrate protein remaining %≤ 100%) | A (0% ≤ substrate protein remaining % ≤ 80%) | B (80%< substrate protein remaining %≤ 100%)
60 to 80 | 80 to 100 | O=C1CCC(N2Cc3c(CN4CCN(c5cc(Cl)nnc5Cl)CC4)cccc3C2=S)C(=O)N1 (stereo not drawn) [GT-08807, 3-(4-((4-(3,6-dichloropyridazin-4-yl)piperazin-1-yl)methyl)-1-thioxoisoindolin-2-yl)piperidine-2,6-dione] | B (80%< substrate protein remaining %≤ 100%) | B (80%< substrate protein remaining %≤ 100%) | B (80%< substrate protein remaining %≤ 100%) | B (80%< substrate protein remaining %≤ 100%) | A (0% ≤ substrate protein remaining % ≤ 80%) | B (80%< substrate protein remaining %≤ 100%)
60 to 80 | 80 to 100 | O=C1CCC(N2Cc3c(CN4CCN(c5ncncn5)CC4)cccc3C2=S)C(=O)N1 (stereo not drawn) [GT-08808, 3-(4-((4-(1,3,5-triazin-2-yl)piperazin-1-yl)methyl)-1-thioxoisoindolin-2-yl)piperidine-2,6-dione] | B (80%< substrate protein remaining %≤ 100%) | B (80%< substrate protein remaining %≤ 100%) | B (80%< substrate protein remaining %≤ 100%) | B (80%< substrate protein remaining %≤ 100%) | A (0% ≤ substrate protein remaining % ≤ 80%) | B (80%< substrate protein remaining %≤ 100%)
53 to 60 | 80 to 100 | O=C1CCC(N2Cc3c(CN4CCN(c5c(F)c(F)nc(F)c5F)CC4)cccc3C2=S)C(=O)N1 (stereo not drawn) [GT-08809, 3-(4-((4-(perfluoropyridin-4-yl)piperazin-1-yl)methyl)-1-thioxoisoindolin-2-yl)piperidine-2,6-dione] | B (80%< substrate protein remaining %≤ 100%) | A (0% ≤ substrate protein remaining % ≤ 80%) | A (0% ≤ substrate protein remaining % ≤ 80%) | A (0% ≤ substrate protein remaining % ≤ 80%) | A (0% ≤ substrate protein remaining % ≤ 80%) | A (0% ≤ substrate protein remaining % ≤ 80%)
60 to 80 | 80 to 100 | O=C1CCC(N2Cc3c(CN4CCN(c5cccnn5)CC4)cccc3C2=S)C(=O)N1 (stereo not drawn) [GT-08810, 3-(4-((4-(pyridazin-3-yl)piperazin-1-yl)methyl)-1-thioxoisoindolin-2-yl)piperidine-2,6-dione] | B (80%< substrate protein remaining %≤ 100%) | B (80%< substrate protein remaining %≤ 100%) | B (80%< substrate protein remaining %≤ 100%) | B (80%< substrate protein remaining %≤ 100%) | A (0% ≤ substrate protein remaining % ≤ 80%) | B (80%< substrate protein remaining %≤ 100%)
